# Results taken from patent US8853193B2, “Thienopyrimidines containing a substituted alkyl group for pharmaceutical compositions” (Boehringer Ingelheim International GmbH, priority 2010, dated 2014).
# Tested on: Mnk2 (Mnk2a or Mnk2b) or Mnk1
# Assay: not given
# Details: cells transfected with Mnk2 (Mnk2a or Mnk2b) or Mnk1; cited from earlier work
row,SMILES,reduction of phosphorylated eIF4E
1,Nc1ncnc2n[nH]c(Nc3ccc(F)cc3)c12 [CGP57380],strong reduction of phosphorylated eIF4E

# Molecular target: human Mnk2a (Homo sapiens (Human), UniProt Q9HBH9)
# Sequence (Q9HBH9 whole entry): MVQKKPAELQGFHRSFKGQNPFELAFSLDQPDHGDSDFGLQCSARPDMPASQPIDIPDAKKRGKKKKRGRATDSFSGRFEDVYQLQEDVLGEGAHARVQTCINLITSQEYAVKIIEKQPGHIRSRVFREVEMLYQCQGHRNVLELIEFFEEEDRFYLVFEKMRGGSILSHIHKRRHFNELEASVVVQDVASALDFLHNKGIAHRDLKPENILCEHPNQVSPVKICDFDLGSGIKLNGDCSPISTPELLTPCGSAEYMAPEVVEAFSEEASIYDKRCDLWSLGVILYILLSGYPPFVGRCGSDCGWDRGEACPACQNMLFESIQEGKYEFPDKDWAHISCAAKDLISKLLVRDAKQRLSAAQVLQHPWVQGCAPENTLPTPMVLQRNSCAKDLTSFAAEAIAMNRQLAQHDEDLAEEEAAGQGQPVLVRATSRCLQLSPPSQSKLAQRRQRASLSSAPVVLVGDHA
# Assay: Mnk2a in vitro kinase assay (indirect competitive fluorescence polarization)
# Type: biochemical
# Details: pre-activated GST-Mnk2a 2.5 nM, 20 μM ATP, 30 μM substrate peptide; read-out: MNK2 IC50
# In short: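 GST-tagged human Mnk2a expressed in E. coli and glutathione-purified, then activated at 2.5 μM with 150 nM pre-activated NHis-ERK2 and 50 μM ATP in HEPES/KOH pH 7.4, MgCl2, DTT, Brij 78 for 45 min at 30 °C. Phospho-peptide product read by indirect competitive fluorescence polarization against fluorophore-labelled phospho-peptide bound to phospho-specific antibody.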
row,SMILES,IC50 [nM]
1,"Cc1c(C(=O)NCCO)sc2ncnc(Nc3cccnc3OC(C)CCN)c12 (centres unmarked) [Compound 42, 4-[2-(3-Amino-1-methyl-propoxy)-3pyridin-3-ylamino]-5-methyl-thieno[2,3-d]pyrimidine-6-carboxylic acid (2-hydroxy-ethyl)-amide]",70
2,"Cc1c(C(=O)NCCO)sc2ncnc(Nc3cccnc3OC(C)CCNS(C)(=O)=O)c12 (centres unmarked) [Compound 43, 4-[2-(3-Methanesulfonylamino-1-methyl-propoxy)-pyridin-3-ylamino]-5-methyl-thieno[2,3-d]pyrimidine-6-carboxylic acid (2-hydroxy-ethyl)-amide]",62
3,"Cc1c(C(=O)O)sc2ncnc(Nc3cccnc3OC(C)CCNS(C)(=O)=O)c12 (centres unmarked) [Compound 44, 4-[2-(3-Methanesulfonylamino-1-methyl-propoxy)-pyridin-3-ylamino]-5-methyl-thieno[2,3-d]pyrimidine-6-carboxylic acid]",24
4,"Cc1c(C(N)=O)sc2ncnc(Nc3cccnc3OC(C)CCNS(C)(=O)=O)c12 (centres unmarked) [Compound 45, 4-[2-(3-Methanesulfonylamino-1-methyl-propoxy)-pyridin-3-ylamino]-5-methyl-thieno[2,3-d]pyrimidine-6-carboxylic acid amide]",20
5,"Cc1c(C(=O)NCCCN(C)C)sc2ncnc(Nc3cccnc3OC(C)CCNS(C)(=O)=O)c12 (centres unmarked) [Compound 46, 4-[2-(3-Methanesulfonylamino-1-methyl-propoxy)-pyridin-3-ylamino]-5-methyl-thieno[2,3-d]pyrimidine-6-carboxylic acid (3-dimethylamino-propyl)-amide]",84
6,"Cc1c(C(=O)NCCCN2CCCC2)sc2ncnc(Nc3ccc(C#N)cc3OC(CF)CF)c12 [Compound 48, 4-[4-Cyano-2-(2-fluoro-1-fluoromethyl-ethoxy)-phenylamino]-5-methyl-thieno[2,3-d]pyrimidine-6-carboxylic acid (3-pyrrolidin-1-yl-propyl)-amide]",12
7,"Cc1c(C(=O)NCCCN(C)C)sc2ncnc(Nc3ccc(C#N)cc3OC(CF)CF)c12 [Compound 49, 4-(4-Cyano-2-(2-fluoro-1-fluoromethyl-ethoxy)-phenylamino]-5-methyl-thieno[2,3-d]pyrimidine-6-carboxylic acid (3-dimethylamino-propyl)-amide]",8
8,"Cc1c(C(=O)NC2CCN(C)CC2)sc2ncnc(Nc3ccc(C#N)cc3OC(CF)CF)c12 [Compound 50, 4-(4-Cyano-2-(2-fluoro-1-fluoromethyl-ethoxy)-phenylamino]-5-methyl-thieno[2,3-d]pyrimidine-6-carboxylic acid (1-methyl-piperidin-4-yl)-amide]",13
9,"Cc1c(C(=O)NCC#CCN(C)C)sc2ncnc(Nc3ccc(C#N)cc3OC(CF)CF)c12 [Compound 52, 4-(4-Cyano-2-(2-fluoro-1-fluoromethyl-ethoxy)-phenylamino]-5-methyl-thieno[2,3-d]pyrimidine-6-carboxylic acid (4-dimethylamino-but-2-ynyl)-amide]",25
10,"Cc1c(C(=O)NCC#N)sc2ncnc(Nc3ccc(C#N)cc3OC(CF)CF)c12 [Compound 53, 4-(4-Cyano-2-(2-fluoro-1-fluoromethyl-ethoxy)-phenylamino]-5-methyl-thieno[2,3-d]pyrimidine-6-carboxylic acid cyanomethyl-amide]",7
11,"COC(=O)c1sc2ncnc(Nc3ccc(F)cc3OC(C)C(=O)O)c2c1C (centres unmarked) [Compound 55, 4-[2-(1-Carboxy-ethoxy)-4-fluoro-phenylamino]-5-methyl-thieno[2,3-d]pyrimidine-6-carboxylic acid methyl ester]",5400
12,"COC(=O)c1sc2ncnc(Nc3ccc(F)cc3OC(C)C(=O)NCCCN)c2c1C (centres unmarked) [Compound 56, 4-{2-[1-(3-Amino-propylcarbamoyl)-ethoxy]-4-fluoro-phenylamino}-5-methyl-thieno[2,3-d]pyrimidine-6-carboxylic acid methyl ester]",314
13,"COC(=O)c1sc2ncnc(Nc3ccc(F)cc3OC(C)C(=O)NCCN)c2c1C (centres unmarked) [Compound 58, 4-{2-[1-(2-Amino-ethylcarbamoyl)-ethoxyl]-4-fluoro-phenylamino}-5-methyl-thieno[2,3-d]pyrimidine-6-carboxylic acid methyl ester]",119
14,"Cc1c(C(=O)NCCO)sc2ncnc(Nc3ccc(F)cc3OC(C)C(=O)NCCN)c12 (centres unmarked) [Compound 59, 4-{2-[1-(2-Amino-ethylcarbamoyl)-ethoxy]-4-fluoro-phenylamino}-5-methyl-thieno[2,3-d]pyrimidine-6-carboxylic acid (2-hydroxy-ethyl)amide]",29

# Now from value to compound:
row,IC50 [nM],SMILES
1,267,"COC(=O)c1sc2ncnc(Nc3ccc(F)cc3OC(C)C(=O)NCCN(C)C)c2c1C (centres unmarked) [Compound 62, 4-{2-[1-(2-Dimethylamino-ethylcabamoyl)-ethoxy]-4-fluoro-phenylamino}-5-methyl-thieno[2,3-d]pyrimidine-6-carboxylic acid methyl ester]"
2,125,"COC(=O)c1sc2ncnc(Nc3ccc(C#N)cc3OC(CF)CF)c2c1C [Compound 47, Methyl 4-[4-cyano-2-(2-fluoro-1-fluoromethyl-ethoxy)phenylamino]-5-methyl-thieno[2,3-d]pyrimidine-6-carboxylate]"
3,110,"Cc1c(C(=O)NCCO)sc2ncnc(Nc3ccc(F)cc3OC(C)C(=O)NCCCN)c12 (centres unmarked) [Compound 57, 4-{2-[1-(3-Amino-propylcarbamoyl)-ethoxy]-4-fluoro-phenylamino}-5-methyl-thieno[2,3-d]pyrimidine-6-carboxylic acid (2-hydroxy-ethyl)-amide]"
4,77,"CCNC(=O)C(C)Oc1cc(F)ccc1Nc1ncnc2sc(C(=O)OC)c(C)c12 (centres unmarked) [Compound 61, 4-[2-(1-Ethylcarbamoyl-ethoxy)-4-fluoro-phenylamino}-5-methylthieno[2,3d]pyrimidine-6-carboxylic acid methyl ester]"
5,37,"Cc1c(C(N)=O)sc2ncnc(Nc3ccc(F)cc3OC(C)C(C)(C)O)c12 (centres unmarked) [Compound 60, 4-[4-Fluoro-2-(2-hydroxy-1,2-dimethyl-propoxy)-phenylamino]-5-methyl-thieno[2,3-d]pyrimidine-6-carboxylic acid amide]"
6,17,Cc1c(C(=O)NCCCN(C)C)sc2ncnc(Nc3ccc(F)cc3OC(C)C#N)c12 (centres unmarked) [Compound 63]
7,11,Cc1c(C(N)=O)sc2ncnc(Nc3ccc(F)cc3OC(C)C#N)c12 (centres unmarked) [Compound 54]
8,10,"Cc1c(C(=O)NCCO)sc2ncnc(Nc3ccc(C#N)cc3OC(CF)CF)c12 [Compound 51, 4-(4-Cyano-2-(2-fluoro-1-fluoromethyl-ethoxy)-phenylamino]-5-methyl-thieno[2,3-d]pyrimidine-6-carboxylic acid (2-hydroxy-ethyl)-amide]"
